How the values were obtained:
[1] = LCMS quantitation of compound in harvested tumors; assay type: in vivo, athymic nude mouse; conditions: i.p. 50 mg/kg, 5× per week over 28 days
Experimental: Mass spectrometry analysis and Sample preparation. Tumor tissue was isolated, flash frozen in liquid nitrogen, and stored at −80° C. until analysis. Prior to LC-MS analysis, samples were milled in liquid nitrogen and weighed. Tissue was then placed in tubes containing ˜50-75 μL of glass beads (NextAdvance SKU GB10), resuspended to 15 mg/ml in methanol:acetonitrile:water (5:3:2, v:v:v) and processed using a Bullet Blender® (Next Advance, Troy, NY, USA) for 5 minutes at level 4 at 4° C. Suspensions were then vortexed continuously for 30 min at 4° C. Insoluble material was removed by centrifugation at 10,000 g for 10 min at 4° C. and supernatants were isolated for metabolomics analysis by UHPLC-MS. Standard curves were prepared by serial dilution of the purified AA-29-141 compound into a pool of vehicle-treated tumor extract.
UHPLC-MS analysis for quantification of 42 in tumor tissue. Analyses were performed as previously published. Briefly, the analytical platform employs a Vanquish UHPLC system (Thermo Fisher Scientific, San Jose, CA, USA) coupled online to a Q Exactive mass spectrometer (Thermo Fisher Scientific, San Jose, CA, USA). […]

tumor xenograft = test: Tumor xenograft study, tumor growth; assay type: in vivo, athymic nude mouse; conditions: i.p. 50 mg/kg, 5× per week over 28 days
Experimental: Finally, a major goal of this drug design approach was to improve the in vivo physicochemical properties of TOP2A inhibitors compared to the natural product neo. Therefore, an in vivo study was conducted using the athymic nude mouse tumor xenograft model to determine if one of these drug leads could accumulate in tumors when administered via intraperitoneal injection (i.p.). […] Thus, compound 42 was administered i.p. at 50 mg/kg, 5× per week over 28 days.

SW620 tumor organoids = test: 3D invasion assay; assay type: cell-based; conditions: SW620 tumor organoids treated 72 hours, viable cells incubated further 72 hours
Experimental: 3D Invasion Assay. SW620 cells were transduced with NucLight®-Red virus (Essen BioSciences, MI) and selected with Zeocin (200 μg/mL). Transduced cells were cultured in RPMI-1640 media supplemented with 5% FBS and allowed to grow in a […] until ˜80% confluent. Afterwards, cells were plated in a CellCarrier Spheroid Ultra-Low Attachment 96-well plate (PerkinElmer, MA) at 5,000 cells/well in 2% Matrigel (Corning, NY) and allowed to grow for 72 hours. Cells were then treated with 10 μM of analogs […] and cultured for an additional 72 hours. Organoids were then collected, half a 96-well plate per treatment condition, spun down at 500 g, washed with PBS, and dissociated with 500 μL of Cultrex® Organoid Harvesting Solution (Trevigen, MD) for 30 min in ice with moderate mixing. Single cells were then spun down at 500 g, the supernatant was discarded, cells were washed with PBS, re-centrifuged, and resuspended in RPMI-1640 media supplemented with 0.5% FBS. Live cells were counted and then plated in an Incucyte® ClearView 96-well cell migration plate (Essen BioSciences, MI) in a 1:1 ratio of Matrigel (Corning, NY) and RPMI-1640 media supplemented with 0.5% FBS and 1% penicillin/streptomycin at 5,000 cells/well. […] Cell invasion was monitored using the Incucyte® ZOOM imaging system (Essen BioSciences, MI) for bottom fluorescence of invading cells per manufacturer's recommendations. […]

## O=C(CCN1CCOCC1)Nc1ccc2c(-c3cc(F)ccc3O)ccnc2c1O [Analog 42]
[1]
  quantity of compound in tumors (LCMS/HRMS): significant HRMS quantity
Tumor xenograft
  tumor growth: no loss of any tumor growth was observed

## CC(=O)Nc1ccc2c(-c3cc(F)ccc3O)ccnc2c1O [Analog 7]
SW620 tumor organoids
  invasive potential, in words: inhibit the invasive potential
